{"source": "patent US7049311B1", "about": "“Pyrrolbenzodiazepines” (Spirogen Limited, priority 1998, dated 2006)", "key": {"[1]": {"tested_on": "human ovarian carcinoma cell line A2780", "assay": "Cytotoxicity in A2780 (Example 9)", "assay_type": "cell-based", "conditions": "read-out: IC50 A2780", "protocol": "(§1) Relative to the parental line, the A2780cisR subline is known to have elevated GSH levels, an increased level of repair of DNA-cisplatin adducts, and a decreased ability to uptake cisplatin (M. Smellie, et al., Br. J. Cancer, 1994, 70, 48).\n(§2) The results, which were obtained by incubating the cells with the compounds for 96 hours at 37° C., and assessing the cell number using Sulforhodamine B, are presented in the table below: […]"}, "[2]": {"tested_on": "A2780cisR", "assay": "Cytotoxicity in cisplatin-resistant A2780cisR (Example 9)", "assay_type": "cell-based, human", "protocol": "as §1, §2"}, "[3]": {"tested_on": "COLO 205", "assay": "NCI in vitro cytotoxicity screen", "assay_type": "cell-based", "conditions": "Homo sapiens, COLO 205, 48 h, read-out: LC50", "protocol": "(§3) The National Cancer Institute (NCI), Bethesda, Md., USA has available an in vitro cytotoxicity screen which consists of approximately 60 human tumour cell lines against which compounds are tested at a minimum of five concentrations each differing 10-fold. A 48 hour continuous exposure protocol is used, where cell viability or growth is estimated with an SRB protein assay.\n(§4) The test compounds were evaluated against approximately 60 human tumour cell lines. The NCI screening procedures were described in detail by Monks and co-workers (Monks, A et al., Journal of the National Cancer Institute, 1991, 83, 757). Briefly, cell suspensions were diluted according to the particular cell type and the expected target cell density (5000-40,000 cells per well based on cell growth characteristics), and added by pipette (100 μL) into 96-well microtitre plates. The cells were allowed a preincubation period of 24 hours at 37° C. for stabilisation. Dilutions at twice the intended test concentration were added at time zero in 100 μL aliquots to the wells. The test compounds were evaluated at five 10-fold dilutions (10^−4, 10^−5, 10^−6, 10^−7 and 10^−[…]). The test compounds were incubated for 48 hours in 5% CO2 atmosphere and 100% humidity. The cells were then assayed using the sulphorhodamine B assay. A plate reader was used to read the optical densities and a microcomputer processed the readings into LC50 values, which is the dosage required to kill half of the cells."}, "[4]": {"tested_on": "MALME-3M", "assay": "NCI in vitro cytotoxicity screen", "assay_type": "cell-based", "conditions": "Homo sapiens, Malme-3M, 48 h, read-out: LC50", "protocol": "as §3, §4"}, "[5]": {"tested_on": "MDA-MB-435", "assay": "NCI in vitro cytotoxicity screen", "assay_type": "cell-based", "conditions": "Homo sapiens, MDA-MB-435, 48 h, read-out: LC50", "protocol": "as §3, §4"}, "[6]": {"tested_on": "RXF 393", "assay": "NCI in vitro cytotoxicity screen", "assay_type": "cell-based", "conditions": "Homo sapiens, RXF 393, 48 h, read-out: LC50", "protocol": "as §3, §4"}, "[7]": {"tested_on": "SK-MEL-28", "assay": "NCI in vitro cytotoxicity screen", "assay_type": "cell-based", "conditions": "Homo sapiens, SK-MEL-28, 48 h, read-out: LC50", "protocol": "as §3, §4"}, "[8]": {"tested_on": "SK-MEL-2", "assay": "NCI in vitro cytotoxicity screen", "assay_type": "cell-based", "conditions": "Homo sapiens, SK-MEL-2, 48 h, read-out: LC50", "protocol": "as §3, §4"}, "[9]": {"tested_on": "UACC-257", "assay": "NCI in vitro cytotoxicity screen", "assay_type": "cell-based", "conditions": "Homo sapiens, UACC-257, 48 h, read-out: LC50", "protocol": "as §3, §4"}, "[10]": {"tested_on": "UACC-62", "assay": "NCI in vitro cytotoxicity screen", "assay_type": "cell-based", "conditions": "Homo sapiens, UACC-62, 48 h, read-out: LC50", "protocol": "as §3, §4"}, "[11]": {"tested_on": "A2780cisR", "assay": "Ovarian carcinoma cytotoxicity assay", "assay_type": "cell-based, human", "conditions": "Homo sapiens, A2780cisR", "protocol": "(§5) Compounds of the invention (and Anthramycin as a comparison) were evaluated for their cytotoxic activity in ovarian cell lines by Dr Lloyd R. Kelland's group at The Institute of Cancer Research, Sutton, UK. The five cell lines investigated were SKOV-3, A2780/A2780cisR and CH1/CH1cisR (cis R denotes that the cell line is resistant to cisplatin).\n(§6) Single viable cells were seeded in growth medium (160 μL) in […] microtitre plates and allowed to attach overnight. […] After 96 hours, the medium was removed and the remaining cells fixed by exposure to 10% trichloroacetic acid on ice for 30 minutes. The wells were then washed 3-4 times with tap water, air dried overnight and treated with 100 μL of sulphorhodamine B (0.4%) dissolved in 1% acetic acid. Staining was allowed to continue for 10-15 minutes, then the wells were washed 3-4 times with 1% acetic acid, air dried and then added to Tris base (100 μL of 10 mM). Plates were then shaken and absorbance readings at 540 nm were determined using a plate reader. By using the Quattro-Pro software package, the IC50 values were calculated from plots of concentration versus percentage absorbance (compared with 8 untreated wells)."}, "[12]": {"tested_on": "A2780", "assay": "Ovarian carcinoma cytotoxicity assay", "assay_type": "cell-based, human", "conditions": "Homo sapiens", "protocol": "as §5, §6"}, "[13]": {"tested_on": "CH1cisR", "assay": "Ovarian carcinoma cytotoxicity assay", "assay_type": "cell-based", "conditions": "Homo sapiens, CH1cisR", "protocol": "as §5, §6"}, "[14]": {"tested_on": "CH1", "assay": "Ovarian carcinoma cytotoxicity assay", "assay_type": "cell-based", "conditions": "Homo sapiens", "protocol": "as §5, §6"}, "[15]": {"tested_on": "SKOV-3", "assay": "Ovarian carcinoma cytotoxicity assay", "assay_type": "cell-based", "conditions": "Homo sapiens", "protocol": "as §5, §6"}, "[16]": {"tested_on": "calf thymus DNA", "assay": "DNA helix melting temperature assay", "assay_type": "binding", "conditions": "[PBD]:[DNA] ratio of 1:5, calf thymus DNA", "protocol": "The first assay, which is described in G. B. Jones, et al., Anti-Cancer Drug Des., 1990, 5, 249, which is incorporated herein by reference, determines the effect of the test compound on the helix melting temperature of DNA. This assay is designed to give an indication of the strength and extent of cross-linking of the DNA strands by the test compound (i.e. a measure of the stabilisation of the DNA upon ligand binding).\nThe melting temperature was determined for a 1:5 molar ratio of [ligand] [DNA], where the calf thymus DNA concentration is […] in aqueous sodium phosphate buffer (10 mM sodium phosphate+1 mM EDTA, pH 7.00±0.01). For calf thymus DNA at pH 7.00±0.01, the melting temperature is 67.83±0.06° C. (mean value from 30 separate determinations)."}, "[17]": {"tested_on": "M14", "assay": "NCI in vitro cytotoxicity screen", "assay_type": "cell-based", "conditions": "Homo sapiens, M14, 48 h, read-out: LC50", "protocol": "as §3, §4"}, "[18]": {"tested_on": "MDA-N", "assay": "NCI in vitro cytotoxicity screen", "assay_type": "cell-based", "conditions": "Homo sapiens, 48 h, read-out: LC50", "protocol": "as §3, §4"}, "[19]": {"tested_on": "NCI-H522", "assay": "NCI in vitro cytotoxicity screen", "assay_type": "cell-based", "conditions": "Homo sapiens, NCI-H522, 48 h, read-out: LC50", "protocol": "as §3, §4"}, "[20]": {"tested_on": "SF-539", "assay": "NCI in vitro cytotoxicity screen", "assay_type": "cell-based", "conditions": "Homo sapiens, SF-539, 48 h, read-out: LC50", "protocol": "as §3, §4"}, "[21]": {"tested_on": "SNB-75", "assay": "NCI in vitro cytotoxicity screen", "assay_type": "cell-based", "conditions": "Homo sapiens, SNB-75, 48 h, read-out: LC50", "protocol": "as §3, §4"}}, "note": "Read-outs that look alike come from different tables or passages of the source.", "data": [{"compound": "N.N.[Cl][Pt][Cl]", "note": "[Cisplatin, reference compound]", "values": [{"measurement": "IC50", "setting": "[1]; 96 hours at 37° C., Sulforhodamine B", "result": 265, "unit": "nM"}, {"measurement": "IC50", "setting": "[2]; cisplatin-resistant subline, 96 hours at 37° C., Sulforhodamine B, read-out: IC50 A2780cis^a", "result": 8400, "unit": "nM"}]}, {"compound": "C=C1C[C@H]2C=Nc3cc(OC)c(OC)cc3C(=O)N2C1", "note": "[UP2064 (74), (11aS)-7,8-Dimethoxy-2-methylidene-1,2,3,11a-tetrahydro-5H-pyrrolo[2,1-c][1.4]benzodiazepin-5-one]", "values": [{"measurement": "CC50", "setting": "[3]", "result": 600, "unit": "nM"}, {"measurement": "CC50", "setting": "[4]", "result": 900, "unit": "nM"}, {"measurement": "CC50", "setting": "[5]", "result": 2300, "unit": "nM"}, {"measurement": "CC50", "setting": "[6]", "result": 800, "unit": "nM"}, {"measurement": "CC50", "setting": "[7]", "result": 2600, "unit": "nM"}, {"measurement": "CC50", "setting": "[8]", "result": 1700, "unit": "nM"}, {"measurement": "CC50", "setting": "[9]", "result": 7400, "unit": "nM"}, {"measurement": "CC50", "setting": "[10]", "result": 600, "unit": "nM"}, {"measurement": "IC50", "setting": "[11]; cisplatin-resistant, 96 hours, sulphorhodamine B, read-out: IC50 A2780cisR", "result": 360, "unit": "nM"}, {"measurement": "IC50", "setting": "[12]; A2780, 96 hours, sulphorhodamine B, read-out: IC50 A2780", "result": 150, "unit": "nM"}, {"measurement": "IC50", "setting": "[13]; cisplatin-resistant, 96 hours, sulphorhodamine B, read-out: IC50 CH1cisR", "result": 84, "unit": "nM"}, {"measurement": "IC50", "setting": "[14]; CH1, 96 hours, sulphorhodamine B, read-out: IC50 CH1", "result": 66, "unit": "nM"}, {"measurement": "IC50", "setting": "[15]; SK-OV-3, 96 hours, sulphorhodamine B, read-out: IC50 Skov3", "result": 390, "unit": "nM"}]}, {"compound": "COc1cc2c(cc1OCCCOc1cc3c(cc1OC)C(=O)N1CCC[C@@H]1C=N3)N=C[C@@H]1CCCN1C2=O", "note": "[DSB-120, reference compound]", "values": [{"measurement": "Induced ΔTa after incubation at 37° C. for 0 h", "setting": "[16]; pH 7.00, 0 h", "result": 10.2, "unit": "°C"}, {"measurement": "Induced ΔTa after incubation at 37° C. for 4 h", "setting": "[16]; pH 7.00, 4 h", "result": 13.1, "unit": "°C"}, {"measurement": "Induced ΔTa after incubation at 37° C. for 18 h", "setting": "[16]; pH 7.00, 18 h", "result": 15.1, "unit": "°C"}, {"measurement": "IC50", "setting": "[1]; Homo sapiens, A2780, 96 hours", "result": 7.2, "unit": "nM"}, {"measurement": "IC50", "setting": "[2]; Homo sapiens, A2780cisR, 96 h, read-out: IC50 A2780cisR", "result": 210, "unit": "nM"}, {"measurement": "IC50", "setting": "[2]; Homo sapiens, A2780cisR, 96 h, read-out: IC50 A2780cis^a", "result": 210, "unit": "nM"}]}, {"compound": "COc1cc2c(cc1OCc1ccccc1)N=C[C@@H]1CC(=O)CN1C2=O", "note": "[UP2067 (172)]", "values": [{"measurement": "CC50", "setting": "[3]", "result": 5800, "unit": "nM"}, {"measurement": "CC50", "setting": "[17]", "result": 800, "unit": "nM"}, {"measurement": "CC50", "setting": "[4]", "result": 7400, "unit": "nM"}, {"measurement": "CC50", "setting": "[5]", "result": 800, "unit": "nM"}, {"measurement": "CC50", "setting": "[18]", "result": 600, "unit": "nM"}, {"measurement": "CC50", "setting": "[19]", "result": 5000, "unit": "nM"}, {"measurement": "CC50", "setting": "[6]", "result": 800, "unit": "nM"}, {"measurement": "CC50", "setting": "[20]", "result": 6800, "unit": "nM"}, {"measurement": "CC50", "setting": "[7]", "result": 6600, "unit": "nM"}, {"measurement": "CC50", "setting": "[21]", "result": 5400, "unit": "nM"}, {"measurement": "CC50", "setting": "[10]", "result": 3000, "unit": "nM"}, {"measurement": "IC50", "setting": "[11]; 96 h, read-out: IC50 A2780cisR, cisplatin-resistant, 96 hours, sulphorhodamine B", "result": 390, "unit": "nM"}, {"measurement": "IC50", "setting": "[12]; A2780, 96 h, read-out: IC50 A2780, 96 hours, sulphorhodamine B", "result": 115, "unit": "nM"}, {"measurement": "IC50", "setting": "[13]; 96 h, read-out: IC50 CH1cisR, cisplatin-resistant, 96 hours, sulphorhodamine B", "result": 180, "unit": "nM"}, {"measurement": "IC50", "setting": "[14]; CH1, 96 h, read-out: IC50 CH1, 96 hours, sulphorhodamine B", "result": 165, "unit": "nM"}, {"measurement": "IC50", "setting": "[15]; SK-OV-3, 96 h, read-out: IC50 Skov3, 96 hours, sulphorhodamine B", "result": 540, "unit": "nM"}]}]}
